The values below come from PubChem BioAssay (NCI).

SMILES strings stand for the structures.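 1) Cells in 96-well plates. 2) Compound, 48 h, 5 concentrations. 3) Linear interpolation between surrounding doses. 4) Unreached endpoint = highest concentration. GI50 = concentration required for 50% inhibition of growth. TGI: total growth inhibition.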 A value given as a limit tells only on which side of the number the result lay.

The subject of the first assay is ACHN renal. Briefly: DTP human tumour cell line panel, 48 h.
By TGI is commonly meant the concentration at which net growth stops. With `O=S(=O)(CCn1c(Sc2ccccc2)c(Sc2ccccc2)c2ccccc21)c1ccccc1`, the total growth inhibition concentration (TGI) was above 100 µM.
As usually defined, the GI50 is the concentration at which growth is held to half of that of the control. Take `O=C(Nc1ccc(Cl)cc1)c1cccc(NC2=C(Cl)C(=O)N(Cc3ccccc3)C2=O)c1`: the GI50 was 14400 nM and the TGI was found to be 27.5 µM.
Regarding `Nc1ncnc2n[nH]c(Nc3ccc(F)cc3)c12`, the GI50 was 5460 nM and the total growth inhibition concentration (TGI) was above 100 µM.
For `OCC#Cc1ccccc1C#Cc1ccccc1`, the GI50 is 14900 nM and the TGI was found to be 28.1 µM.
In the case of `CCN(CC)c1ccc(-c2cc(-c3cc(OC)c(OC)c(OC)c3)nc(N3CCOCC3)c2C#N)cc1`, the GI50 was 1220 nM and the TGI was above 100 µM.
With `CC(=O)[C@@]12O[C@@H]1CC1C3CCC4=CC(O)CCC4(C)C3CCC12C` (stereo not given in full), the GI50 was 44900 nM and the TGI is above 100 µM.
For `Cc1cc(/C=C/c2ccc3cc(N(C)C)ccc3[n+]2C)c(C)n1-c1ccccc1`, the GI50 is 596 nM and the TGI amounted to 1.74 µM.
On the same counts, the results for `Cn1cnc([N+](=O)[O-])c1S(=O)(=O)Oc1cccc2ccccc12` are 1970 nM and 4.21 µM.
For `Fc1cc2[nH]ncc2c2c3c(c(-c4cn[nH]c4)nc12)CCCC3` the same measures were 327 nM and 10.3 µM.
As for `O=C1c2cc3c(cc2-c2c1c1ccc(F)cc1c(=O)n2CCCNCCO)OCO3`, the concentration for 50% growth inhibition (GI50) was 24.7 nM and the total growth inhibition concentration (TGI) amounted to 0.104 µM.
On the same counts, the results for `O=C1OC(O)[C@@H]2[C@H]1[C@H]1CC[C@@H]2O1` (stereo not given in full) are above 89600 nM and above 100 µM.
On the same counts, the results for `COc1cccc(-c2nc(-c3ccc(NC(=O)C(C)C)cc3)[nH]c2-c2ccnc(Br)c2)c1` are 2740 nM and above 100 µM.
Take `COc1ccc(-c2nnc(COc3ccc(NC(=O)Nc4cc(C(F)(F)F)cc(C(F)(F)F)c4)cc3F)o2)cc1`: the GI50 is 2540 nM and the TGI came to 10.1 µM.
With `COc1ccc(/C=C(/C#N)n2nnc3cccc(F)c32)cc1`, the GI50 is 1310 nM and the TGI was above 100 µM.
For `O=C(CSc1ccc(Cl)cc1)Nc1ccc(-c2nc3ccccc3s2)c(Cl)c1` the same measures were 4090 nM and 36.9 µM.
In the case of `COc1ccc(-c2nnc(COc3ccc(C(=O)/C=C/c4ccco4)cc3)o2)cc1`, the GI50 was 2120 nM and the TGI was determined as 5.03 µM.
On the same counts, the results for `ClCc1cccc(Cn2cnc3ncnc(Cl)c32)c1` are 1880 nM and 3.53 µM.
For the molecule `O=c1c2sccc2n(CC2COc3ccccc3O2)c(=O)n1O` (stereo not given), the GI50 was 20500 nM and the TGI is above 100 µM.

The test system of another assay is NCI-H460 lung. Briefly: DTP human tumour cell line panel, 48 h.
On to `O=S(=O)(CCn1c(Sc2ccccc2)c(Sc2ccccc2)c2ccccc21)c1ccccc1`, for which the TGI is above 100 µM.
As to `O=C(Nc1ccc(Cl)cc1)c1cccc(NC2=C(Cl)C(=O)N(Cc3ccccc3)C2=O)c1`, the GI50 is 15.2 µM and the concentration for total growth inhibition (TGI) was found to be 35 µM.
On the same counts, the results for `Nc1ncnc2n[nH]c(Nc3ccc(F)cc3)c12` are 16.3 µM and above 100 µM.
In the case of `OCC#Cc1ccccc1C#Cc1ccccc1`, the GI50 is 18.2 µM and the TGI worked out at 35.2 µM.
For `CCN(CC)c1ccc(-c2cc(-c3cc(OC)c(OC)c(OC)c3)nc(N3CCOCC3)c2C#N)cc1` the same measures were 0.412 µM and 5.73 µM.
On the same counts, the results for `CC(=O)[C@@]12O[C@@H]1CC1C3CCC4=CC(O)CCC4(C)C3CCC12C` (stereo not given in full) are 70.8 µM and above 100 µM.
Take `Cc1cc(/C=C/c2ccc3cc(N(C)C)ccc3[n+]2C)c(C)n1-c1ccccc1`: the GI50 was 0.146 µM and the TGI was 0.56 µM.
On the same counts, the results for `Cn1cnc([N+](=O)[O-])c1S(=O)(=O)Oc1cccc2ccccc12` are 14.7 µM and 36 µM.
On the same counts, the results for `Fc1cc2[nH]ncc2c2c3c(c(-c4cn[nH]c4)nc12)CCCC3` are 0.845 µM and 4.69 µM.
On the same counts, the results for `O=C1c2cc3c(cc2-c2c1c1ccc(F)cc1c(=O)n2CCCNCCO)OCO3` are 0.0219 µM and 0.204 µM.
Take `O=C1OC(O)[C@@H]2[C@H]1[C@H]1CC[C@@H]2O1` (stereo not given in full): the GI50 was above 100 µM and the total growth inhibition concentration (TGI) is above 100 µM.
Regarding `COc1cccc(-c2nc(-c3ccc(NC(=O)C(C)C)cc3)[nH]c2-c2ccnc(Br)c2)c1`, the GI50 is 3.2 µM and the total growth inhibition concentration (TGI) turned out to be 21.3 µM.
As to `COc1ccc(-c2nnc(COc3ccc(NC(=O)Nc4cc(C(F)(F)F)cc(C(F)(F)F)c4)cc3F)o2)cc1`, the GI50 is 1.66 µM and the total growth inhibition concentration (TGI) amounted to 4.38 µM.
On the same counts, the results for `COc1ccc(/C=C(/C#N)n2nnc3cccc(F)c32)cc1` are 0.703 µM and 4.62 µM.
For `O=C(CSc1ccc(Cl)cc1)Nc1ccc(-c2nc3ccccc3s2)c(Cl)c1` the same measures were 3.41 µM and 16 µM.
For the molecule `COc1ccc(-c2nnc(COc3ccc(C(=O)/C=C/c4ccco4)cc3)o2)cc1`, the GI50 was 3.66 µM and the TGI was 14 µM.
In the case of `ClCc1cccc(Cn2cnc3ncnc(Cl)c32)c1`, the GI50 is 2.09 µM and the TGI stood at 4.45 µM.
As to `O=c1c2sccc2n(CC2COc3ccccc3O2)c(=O)n1O` (stereo not given), the GI50 is 4.66 µM and the total growth inhibition concentration (TGI) came to 41.8 µM.

In a further assay the test system is A549 NSCLC. Briefly: DTP human tumour cell line panel, 48 h.
On to `O=S(=O)(CCn1c(Sc2ccccc2)c(Sc2ccccc2)c2ccccc21)c1ccccc1`, for which the TGI is above 100 µM.
With `O=C(Nc1ccc(Cl)cc1)c1cccc(NC2=C(Cl)C(=O)N(Cc3ccccc3)C2=O)c1`, the GI50 was 14.8 µM and the TGI was found to be 28 µM.
`Nc1ncnc2n[nH]c(Nc3ccc(F)cc3)c12`: the GI50 was 39.2 µM and the TGI was above 100 µM.
On the same counts, the results for `OCC#Cc1ccccc1C#Cc1ccccc1` are 16.5 µM and 45 µM.
As for `CCN(CC)c1ccc(-c2cc(-c3cc(OC)c(OC)c(OC)c3)nc(N3CCOCC3)c2C#N)cc1`, the GI50 was 1.37 µM and the total growth inhibition concentration (TGI) is above 100 µM.
On the same counts, the results for `CC(=O)[C@@]12O[C@@H]1CC1C3CCC4=CC(O)CCC4(C)C3CCC12C` (stereo not given in full) are 72.7 µM and above 100 µM.
Take `Cc1cc(/C=C/c2ccc3cc(N(C)C)ccc3[n+]2C)c(C)n1-c1ccccc1`: the concentration for 50% growth inhibition (GI50) was 0.182 µM and the concentration for total growth inhibition (TGI) was 1.02 µM.
Regarding `Cn1cnc([N+](=O)[O-])c1S(=O)(=O)Oc1cccc2ccccc12`, the GI50 is 17.5 µM and the TGI was 52.4 µM.
Turning to `Fc1cc2[nH]ncc2c2c3c(c(-c4cn[nH]c4)nc12)CCCC3`, the GI50 was 0.844 µM and the concentration for total growth inhibition (TGI) is above 100 µM.
For `O=C1c2cc3c(cc2-c2c1c1ccc(F)cc1c(=O)n2CCCNCCO)OCO3` the same measures were 0.0339 µM and 0.188 µM.
As to `O=C1OC(O)[C@@H]2[C@H]1[C@H]1CC[C@@H]2O1` (stereo not given in full), the GI50 was 60.8 µM and the concentration for total growth inhibition (TGI) was above 100 µM.
On the same counts, the results for `COc1cccc(-c2nc(-c3ccc(NC(=O)C(C)C)cc3)[nH]c2-c2ccnc(Br)c2)c1` are 3.45 µM and above 100 µM.
`COc1ccc(-c2nnc(COc3ccc(NC(=O)Nc4cc(C(F)(F)F)cc(C(F)(F)F)c4)cc3F)o2)cc1`: the GI50 was 1.58 µM and the TGI is 7.15 µM.
Consider `COc1ccc(/C=C(/C#N)n2nnc3cccc(F)c32)cc1`, for which the GI50 was 1.46 µM and the TGI was above 100 µM.
For `O=C(CSc1ccc(Cl)cc1)Nc1ccc(-c2nc3ccccc3s2)c(Cl)c1` the same measures were 5.84 µM and above 100 µM.
As to `COc1ccc(-c2nnc(COc3ccc(C(=O)/C=C/c4ccco4)cc3)o2)cc1`, the GI50 was 3.33 µM and the TGI stood at 13.8 µM.
Take `ClCc1cccc(Cn2cnc3ncnc(Cl)c32)c1`: the GI50 is 17.2 µM and the concentration for total growth inhibition (TGI) came out at 39.6 µM.
Turning to `O=c1c2sccc2n(CC2COc3ccccc3O2)c(=O)n1O` (stereo not given), the GI50 is 23.3 µM and the concentration for total growth inhibition (TGI) was above 100 µM.

The test system of another assay is MOLT-4 leukemia. Briefly: DTP human tumour cell line panel, 48 h.
Turning to `O=S(=O)(CCn1c(Sc2ccccc2)c(Sc2ccccc2)c2ccccc21)c1ccccc1`, the concentration for total growth inhibition (TGI) was above 100 µM.
Turning to `O=C(Nc1ccc(Cl)cc1)c1cccc(NC2=C(Cl)C(=O)N(Cc3ccccc3)C2=O)c1`, the GI50 is 12.1 µM and the TGI amounted to 24.5 µM.
On the same counts, the results for `Nc1ncnc2n[nH]c(Nc3ccc(F)cc3)c12` are 31.7 µM and above 100 µM.
As for `OCC#Cc1ccccc1C#Cc1ccccc1`, the GI50 was 3.95 µM and the TGI was above 100 µM.
For the molecule `CCN(CC)c1ccc(-c2cc(-c3cc(OC)c(OC)c(OC)c3)nc(N3CCOCC3)c2C#N)cc1`, the GI50 is 2.45 µM and the total growth inhibition concentration (TGI) was above 100 µM.
On the same counts, the results for `CC(=O)[C@@]12O[C@@H]1CC1C3CCC4=CC(O)CCC4(C)C3CCC12C` (stereo not given in full) are above 100 µM and above 100 µM.
For `Cc1cc(/C=C/c2ccc3cc(N(C)C)ccc3[n+]2C)c(C)n1-c1ccccc1` the same measures were 0.193 µM and 2.52 µM.
Take `Cn1cnc([N+](=O)[O-])c1S(=O)(=O)Oc1cccc2ccccc12`: the GI50 is 3.37 µM and the concentration for total growth inhibition (TGI) came out at 22.7 µM.
For the molecule `Fc1cc2[nH]ncc2c2c3c(c(-c4cn[nH]c4)nc12)CCCC3`, the GI50 was 1.72 µM and the total growth inhibition concentration (TGI) worked out at 6.15 µM.
On to `O=C1c2cc3c(cc2-c2c1c1ccc(F)cc1c(=O)n2CCCNCCO)OCO3`, for which the GI50 was 0.024 µM and the TGI turned out to be 1.24 µM.
Turning to `O=C1OC(O)[C@@H]2[C@H]1[C@H]1CC[C@@H]2O1` (stereo not given in full), the GI50 is above 100 µM and the concentration for total growth inhibition (TGI) is above 100 µM.
Take `COc1cccc(-c2nc(-c3ccc(NC(=O)C(C)C)cc3)[nH]c2-c2ccnc(Br)c2)c1`: the GI50 is 2.56 µM and the TGI was above 100 µM.
On the same counts, the results for `COc1ccc(-c2nnc(COc3ccc(NC(=O)Nc4cc(C(F)(F)F)cc(C(F)(F)F)c4)cc3F)o2)cc1` are 2.68 µM and 14.1 µM.
`COc1ccc(/C=C(/C#N)n2nnc3cccc(F)c32)cc1`: the GI50 was 0.68 µM and the concentration for total growth inhibition (TGI) was above 100 µM.
On the same counts, the results for `O=C(CSc1ccc(Cl)cc1)Nc1ccc(-c2nc3ccccc3s2)c(Cl)c1` are 4.37 µM and above 100 µM.
As to `COc1ccc(-c2nnc(COc3ccc(C(=O)/C=C/c4ccco4)cc3)o2)cc1`, the GI50 was 2.89 µM and the total growth inhibition concentration (TGI) turned out to be 9.05 µM.
On the same counts, the results for `ClCc1cccc(Cn2cnc3ncnc(Cl)c32)c1` are 10.6 µM and 29.4 µM.
With `O=c1c2sccc2n(CC2COc3ccccc3O2)c(=O)n1O` (stereo not given), the GI50 was 21.3 µM and the concentration for total growth inhibition (TGI) is above 100 µM.
